For one assay, the target named is interaction between GST-MAGEA11 MHD and FAM-PCF11_4 peptide (MAGE-A11:PCF11) (Homo sapiens (Human), UniProt P43364). The assay can be described thus: TR-FRET dose response competition assay for disruption of MAGE-A11:PCF11 binding. The settings on record: Dose response TR-FRET screening of nine scaffold groups against MAGE-A11:PCF11; read-out: consensus IC50. In a few lines: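 Competition TR-FRET at room temperature in 50 mM Tris pH 7.5, 20 mM MgCl2, 0.1 mg/ml BSA, 1 mM DTT: final 5 nM GST-MAGEA11 MHD, 5 nM Tb-anti-GST, 200 nM FAM-PCF11_4, 90 min. Ratio 520/490 nm converted to % inhibition; IC50 from sigmoidal fit.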
interaction between GST-MAGEA11 MHD and FAM-PCF11_4 peptide (MAGE-A11:PCF11), sequence (P43364 218-429): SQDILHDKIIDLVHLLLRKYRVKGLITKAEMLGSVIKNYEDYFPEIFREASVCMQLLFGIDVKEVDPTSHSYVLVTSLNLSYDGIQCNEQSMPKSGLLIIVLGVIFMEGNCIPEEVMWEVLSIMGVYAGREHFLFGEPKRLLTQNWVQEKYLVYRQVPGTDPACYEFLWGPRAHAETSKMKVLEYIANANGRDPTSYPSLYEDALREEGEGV
Take `CCC(CO)NC1=C(Cl)C(=O)c2ccccc2C1=O` (stereo not drawn) [SJ000148678-1]: the IC50 came out at 69.9 µM.

Turning to `CCCCCn1c(-c2ccc(F)c(Br)c2)nc2c1c(=O)[nH]c(=O)n2CCCC` [SJ000378900-1], the IC50 turned out to be 2.64 µM.

Take `COc1cccc(CNCCCNc2ccnc3cc(Cc4cccc(C(F)(F)F)c4)ccc23)c1O` [SJ000311299-1]: the IC50 was 27.5 µM.

For `COc1cccc(CNCCCNc2ccnc3cc(Oc4cccc(N(C)C)c4)ccc23)c1O` [SJ000311231-1], the IC50 was found to be 69.9 µM.

For `COc1ccc(C)cc1Nc1nc(N)c2ccccc2n1` [SJ000201566-1], the IC50 was 69.9 µM.

`CCOc1ccc(-c2nc3c(c(=O)[nH]c(=O)n3Cc3ccccc3)n2C)cc1` [SJ000389476-1]: the IC50 was found to be 69.9 µM.

As for `Cn1c(-c2cc(Cl)ccc2O)nc2c1c(=O)[nH]c(=O)n2Cc1ccccc1` [SJ000386224-1], the IC50 is 69.9 µM.

In the case of `O=S(=O)(c1ccccc1)c1nc(-c2ccc(Cl)cc2)oc1N1CCOCC1` [SJ000230691-1], the 50% inhibitory concentration (IC50) was 69.9 µM.

As for `CCCn1c(=O)[nH]c(=O)c2c1nc(-c1ccc(C#N)cc1)n2CCN1CCOCC1` [SJ000403937-1], the IC50 is 69.9 µM.

On to `CCCN1C(=O)c2ccccc2NC1c1cccc(F)c1` (stereo not drawn) [SJ000288416-1], for which the IC50 worked out at 69.9 µM.

For `COc1ccc(Oc2ccc3c(NCCCNCc4cccc5c4OCO5)ccnc3c2)cc1` [SJ000311220-1], the IC50 is 43.7 µM.

Turning to `COP(=O)(OC)c1nc(-c2ccc(Cl)cc2)oc1N1CCOCC1` [SJ000090185-1], the IC50 was determined as 17.4 µM.

Consider `CCCCn1c(=O)[nH]c(=O)c2c1nc(-c1ccc(OCC)c(OC)c1)n2CCOC` [SJ000427387-1], for which the IC50 worked out at 69.9 µM.

Consider `COc1ccc(F)c(CNCCCNc2ccnc3cc(C(F)(F)F)ccc23)c1` [SJ000521058-1], for which the IC50 stood at 69.9 µM.

In the case of `COc1cccc(-c2nc(S(=O)(=O)c3ccc(C)cc3)c(N3CCOCC3)o2)c1` [SJ000038123-1], the IC50 is 17.4 µM.

As to `COc1ccc(Br)cc1-c1nc2c(c(=O)[nH]c(=O)n2Cc2ccccc2)n1C` [SJ000382136-1], the half-maximal inhibitory concentration (IC50) was 69.9 µM.

Take `C=CCNC(=O)NC(=O)Cn1cnc2cc(-c3ccccc3)sc2c1=O` [SJ000426777-1]: the IC50 worked out at 69.9 µM.

Regarding `COc1ccc(F)cc1CNCCCNc1ccnc2cc(Oc3ccc(Cl)cc3)ccc12` [SJ000311229-1], the IC50 is 19.7 µM.

For the compound `CCCCn1c(-c2ccc(Cl)cc2)nc2c1c(=O)[nH]c(=O)n2Cc1ccccc1` [SJ000378907-1], the IC50 stood at 69.9 µM.

Consider `Oc1ccc(Br)cc1CNCCCNc1ccnc2cc(Cl)ccc12` [SJ000311186-1], for which the IC50 was determined as 69.9 µM.

Turning to `Cc1ccc(-c2nc(C#N)c(N3CC(C)OC(C)C3)o2)cc1` (stereo not drawn) [SJ000478358-1], the IC50 is 69.9 µM.

As for `CCCn1c(=O)[nH]c(=O)c2c1nc(-c1ccc(OC)c(Br)c1)n2CCOC` [SJ000378893-1], the IC50 came out at 69.9 µM.

As for `CCn1c2ccccc2c2cc(CNCCc3ccccc3)ccc21` [SJ000111712-1], the IC50 worked out at 69.9 µM.

`N#Cc1ccc(Cc2ccc3c(NCCCNCc4cccc5c4OCO5)ccnc3c2)cc1` [SJ000311304-1]: the IC50 was found to be 66 µM.

Consider `Cn1c(-c2ccc(OCC(=O)O)cc2)nc2c1c(=O)[nH]c(=O)n2Cc1ccccc1` [SJ000441071-1], for which the IC50 is 69.9 µM.

Turning to `CCCn1c(=O)c2nc(-c3ccc(S(=O)(=O)O)cc3)[nH]c2n(CCC)c1=O` [SJ000287650-2], the IC50 came to 69.9 µM.

`COC(=O)c1ccc(NC2=C(Cl)C(=O)c3ccccc3C2=O)cc1` [SJ000299646-1]: the IC50 is 69.9 µM.

For `Cc1ccc(S(=O)(=O)c2nc(-c3ccccc3Cl)oc2N2CC(C)OC(C)C2)cc1` (stereo not drawn) [SJ000329066-1], the concentration for half-maximal inhibition (IC50) was 13 µM.

`COc1cccc(CNCCCNc2ccnc3cc(-c4ccc(C(C)(C)C)cc4)ccc23)c1O` [SJ000311287-1]: the IC50 worked out at 4.67 µM.

`Cn1c(-c2ccc3c(c2)OCO3)nc2c1c(=O)[nH]c(=O)n2C` [SJ000518479-1]: the IC50 came out at 69.9 µM.

On to `CCCCn1c(=O)[nH]c(=O)c2c1nc(-c1ccc(CC)c([N+](=O)[O-])c1)n2C` [SJ000378868-1], for which the IC50 worked out at 69.9 µM.

In the case of `Fc1ccccc1CNCCCNc1ccnc2cc(Cl)ccc12` [SJ000523060-1], the IC50 was determined as 69.9 µM.

Consider `Cc1cc(C)c(CNCCCNc2ccnc3cc(Cl)ccc23)c(C)c1` [SJ000520911-2], for which the IC50 is 68.1 µM.

For the compound `CCCn1c(-c2ccc(OC)cc2)nc2c1c(=O)[nH]c(=O)n2Cc1ccccc1` [SJ000452204-1], the IC50 came out at 69.9 µM.

Regarding `O=C(O)c1cccc(NC2=C(Cl)C(=O)c3ccccc3C2=O)c1` [SJ000022282-2], the IC50 was found to be 69.9 µM.

As for `CCCn1c(-c2ccc(C(C)(C)C)cc2)nc2c1c(=O)[nH]c(=O)n2Cc1ccccc1` [SJ000375920-1], the IC50 was 69.9 µM.

In the case of `O=C1c2ccccc2NC(c2ccc(Cl)c(Cl)c2)N1Cc1ccccc1` (stereo not drawn) [SJ000551208-1], the IC50 is 69.9 µM.

On to `COc1ccc(-c2ccc3c(NCCCNCc4cccc5c4OCO5)ccnc3c2)cc1` [SJ000311296-1], for which the IC50 was 69.9 µM.

Take `COc1cc2nc(N(C)CCCNC(=O)C3CCCO3)nc(N)c2cc1OC` (stereo not drawn) [SJ000286094-9]: the IC50 is 36.2 µM.

As to `CCOc1ccc(-c2nc(C#N)c(N3CCOCC3)o2)cc1` [SJ000041896-1], the IC50 was 69.9 µM.

In the case of `COc1ccc(F)cc1CNCCCNc1ccnc2cc(Cc3c(Cl)cccc3Cl)ccc12` [SJ000311317-1], the IC50 is 12.2 µM.

The same assay, now with this note: Table 5, dose response TR-FRET screening of 59 quinoline compounds against MAGE-A11:PCF11; read-out: TR-FRET IC50.
In the case of `Clc1ccc2c(NCCCNCc3csc4ccccc34)ccnc2c1` [SJ000521033-1], the IC50 is more than 70 µM.

For `Oc1c(F)cc(F)cc1CN(CCCCNc1ccnc2cc(Cl)ccc12)Cc1ccccc1` [SJ000357506-2], the IC50 was more than 70 µM.

`CCCN(CCCNc1ccnc2cc(C(F)(F)F)ccc12)CCC(C)(C)C` [SJ000520476-1]: the IC50 is more than 70 µM.

Still in this assay, the particulars now being: Table 8, representative compounds; read-out: TR-FRET IC50.
For `FC(F)(F)c1ccccc1CNCCCNc1ccnc2cc(Cl)ccc12` [SJ000520908], the IC50 worked out at 69.9 µM.

With `Fc1ccc(-c2ccc3c(NCCCNCc4cccc5c4OCO5)ccnc3c2)cc1` [SJ000311240], the IC50 was 25 µM.

With `CC(C)(C)c1ccc(O)c(CNCCCNc2ccnc3cc(Cl)ccc23)c1` [SJ000311193], the IC50 amounted to 30.4 µM.

Regarding `COc1ccc(F)cc1CNCCCNc1ccnc2cc(Oc3ccccc3)ccc12` [SJ000311209], the IC50 is 29 µM.

Regarding `COc1cccc(CNCCCNc2ccnc3cc(Cc4ccc(F)cc4Cl)ccc23)c1O` [SJ000311323], the IC50 amounted to 17.6 µM.

Turning to `Oc1ccccc1CNCCCNc1ccnc2cc(Cl)ccc12` [SJ000311187], the IC50 amounted to 69.9 µM.

On to `COc1ccc(F)cc1CNCCCNc1ccnc2cc(Oc3ccc(Cl)cc3)ccc12` [SJ000311229], for which the IC50 turned out to be 19.7 µM.

Consider `COc1ccc(F)cc1CNCCNc1ccnc2cc(-c3ccc4c(c3)OCO4)ccc12` [SJ000311293], for which the IC50 was determined as 29.9 µM.

As to `COc1cccc(CNCCCNc2ccnc3cc(-c4ccc5c(c4)OCO5)ccc23)c1O` [SJ000311291], the IC50 was determined as 24.6 µM.

With `COc1cc(NC(C)CCCN)c2ncccc2c1` (stereo not drawn) [SJ000285544], the IC50 worked out at 19 µM.

As for `Oc1ccc(Br)c(CNCCCNc2ccnc3cc(Cl)ccc23)c1` [SJ000311194], the IC50 stood at 69.9 µM.

In the case of `CC(C)Cc1ccc2c(NCCCNCc3cccc4c3OCO4)ccnc2c1` [SJ000311260], the IC50 came to 69.9 µM.

As for `Oc1ccc(Br)cc1CNCCCNc1ccnc2cc(Cl)ccc12` [SJ000311186], the IC50 was 69.9 µM.

For the origin of these results see US20240246941A1, “SUBSTITUTED 4-(3-AMINOPROP-1-YL)AMINOQUINOLINE ANALOGS AS MODULATORS OF MELANOMA-ASSOCIATED ANTIGEN 11 UBIQUITIN LIGASE” (ST. JUDE CHILDREN'S RESEARCH HOSPITAL, INC., priority 2020, published 2024).
